Experimental data: patent US9321722B2, “Bis-indolic derivatives, their uses in particular as antibacterials” (UNIVERSITE JOSEPH FOURIER, priority 2011, dated 2016)
Values after ≈ are worked out from the molar mass of the structure shown.

What was measured:
[1] = system: S. aureus ATCC 106414 (VISA); assay: MIC microdilution (Table I-1); assay type: cell-based, Staphylococcus aureus; settings: Staphylococcus aureus, read after 18 hours, read-out: MIC
Method: (§1) The microdilution method recommended by the Clinical and Laboratory Standard Institute [M07-A8, Vol. 29, N^o 2] was used. The activity of indolic compounds was tested against 29 bacterial strains belonging to 17 different species and 12 different genera (Staphylococcus, Streptococcus, Enterococcus, Listeria, Bacillus, Haemophilus, Escherichia, Klebsiella, Enterobacter, Serratia, Pseudomonas, and Acinetobacter). Bacterial inocula were prepared in Mueller Hinton broth (MH2, bioMerieux, Marcy L'Etoile, France), supplemented with 10% sheep blood for fastidious species (i.e., Streptococcus pneumoniae and Haemophilus influenzae). They were dispensed in 96 well microtiter plates (5×10^5 CFU/ml of final inoculum). Indolic compounds were added to the wells as to obtain two-fold serial concentrations (0.50-128 mg/L of final concentrations). Plates were incubated at 37° C. in ambient air, or at 37° C. in 5% CO2 enriched atmosphere for fastidious species. […] Drug-free cultures served as growth controls. Cultures receiving gentamicin, ciprofloxacin or cefotaxime served as positive controls.

[2] = system: S. aureus ATCC 29213; assay: MIC microdilution (Table I-1); assay type: cell-based, Staphylococcus aureus; settings: Staphylococcus aureus, ATCC29213, read after 18 hours, read-out: MIC
Method: as §1

[3] = system: S. aureus ATCC 33592 (MRSA); assay: MIC microdilution (Table I-1); assay type: cell-based, Staphylococcus aureus; settings: Staphylococcus aureus, read after 18 hours, read-out: MIC
Method: as §1

[4] = system: S. aureus ATCC 6538; assay: MIC microdilution (Table I-1); assay type: cell-based, Staphylococcus aureus; settings: Staphylococcus aureus, ATCC6538, read after 18 hours, read-out: MIC
Method: as §1

[5] = system: S. aureus ATCC 9144; assay: MIC microdilution (Table I-1); assay type: cell-based, Staphylococcus aureus; settings: Staphylococcus aureus, ATCC9144, read after 18 hours, read-out: MIC
Method: as §1

[6] = system: S. aureus CIP 103428; assay: MIC microdilution (Table I-1); assay type: cell-based, Staphylococcus aureus; settings: Staphylococcus aureus, CIP103428, read after 18 hours, read-out: MIC
Method: as §1

[7] = system: S. aureus CIP 65.25 (MRSA); assay: MIC microdilution (Table I-1); assay type: cell-based, Staphylococcus aureus; settings: Staphylococcus aureus, read after 18 hours, read-out: MIC
Method: as §1

[8] = system: S. aureus CIP 65.6; assay: MIC microdilution (Table I-1); assay type: cell-based, Staphylococcus aureus; settings: Staphylococcus aureus, CIP65, read after 18 hours, read-out: MIC
Method: as §1

[9] = system: S. aureus SA-1199B; assay: MIC microdilution (Table I-1); assay type: cell-based, Staphylococcus aureus; settings: Staphylococcus aureus, SA1199B, 18 h
Method: as §1

[10] = system: S. epidermidis ATCC 12228; assay: MIC microdilution (Table I-1); assay type: cell-based, Staphylococcus epidermidis; settings: Staphylococcus epidermidis, ATCC12228, read after 18 hours, read-out: MIC
Method: as §1

[11] = system: S. epidermidis CIP 103627; assay: MIC microdilution (Table I-1); assay type: cell-based, Staphylococcus epidermidis; settings: Staphylococcus epidermidis, CIP103627, read after 18 hours, read-out: MIC
Method: as §1

[12] = system: S. epidermidis CIP 81.55; assay: MIC microdilution (Table I-1); assay type: cell-based, Staphylococcus epidermidis; settings: Staphylococcus epidermidis, CIP81, read after 18 hours, read-out: MIC
Method: as §1

[13] = system: E. faecalis ATCC 29212; assay: MIC microdilution (Table I-1); assay type: cell-based; settings: Enterococcus faecalis, ATCC29212, read after 18 hours, read-out: MIC
Method: as §1

[14] = system: E. faecium CIP 54.32; assay: MIC microdilution (Table I-1); assay type: cell-based; settings: Enterococcus faecium, CIP54, read after 18 hours, read-out: MIC
Method: as §1

[15] = system: Enterobacter cloacae ATCC 13047; assay: MIC microdilution (Table I-1); assay type: cell-based; settings: ATCC13047, read after 18 hours
Method: as §1

[16] = system: Haemophilus influenzae ATCC 49766; assay: MIC microdilution (Table I-1); assay type: cell-based; settings: ATCC49766; Haemophilus influenzae ATCC 49766; read after 18 hours; read-out: MIC
Method: as §1

[17] = system: Pseudomonas aeruginosa CIP 5933; assay: MIC microdilution (Table I-1); assay type: cell-based; settings: CIP5933, read after 18 hours
Method: as §1

[18] = system: S. agalactiae (group B) ATCC 12400; assay: MIC microdilution (Table I-1); assay type: cell-based; settings: Streptococcus agalactiae, ATCC12400, read after 18 hours, read-out: MIC
Method: as §1

[19] = system: S. aureus ATCC 25923; assay: MIC microdilution (Table I-1); assay type: cell-based; settings: Staphylococcus aureus, ATCC25923, read after 18 hours
Method: as §1

[20] = system: S. mitis CIP 103335; assay: MIC microdilution (Table I-1); assay type: cell-based; settings: Streptococcus mitis, CIP103335, read after 18 hours, read-out: MIC
Method: as §1

[21] = system: S. pneumoniae ATCC 49619; assay: MIC microdilution (Table I-1); assay type: cell-based; settings: Streptococcus pneumoniae, ATCC49619, read after 18 hours
Method: as §1

[22] = system: S. pyogenes (group A) CIP 104226; assay: MIC microdilution (Table I-1); assay type: cell-based; settings: Streptococcus pyogenes, CIP104226, read after 18 hours, read-out: MIC
Method: as §1

[23] = system: Serratia marcescens CIP 103551; assay: MIC microdilution (Table I-1); assay type: cell-based; settings: CIP103551, read after 18 hours
Method: as §1

[24] = system: S. pneumoniae ATCC 6303; assay: MIC microdilution (Table I-1); assay type: cell-based, Streptococcus pneumoniae; settings: Streptococcus pneumoniae, ATCC6303, read after 18 hours, read-out: MIC
Method: as §1

[25] = system: HCT116 (human colon tumor); assay: In vitro cytotoxicity; assay type: cell-based; settings: for inhibition at 10 µM: HCT-116, HCT116, 10^−5 M, read-out: % of cellular growth inhibition; for inhibition at 1 µM: HCT-116, HCT116, 10^−6 M, read-out: % of cellular growth inhibition (converted)
Method: (§2) In vitro cytotoxicity was assayed on three cell lines—KB (human mouth carcinoma), MCR5 (human lung fibroblast) and HCT116 (human colon tumor). Results are presented in table III as % of cellular growth inhibition in presence of 10^−5 M and 10^−6 M of the tested bis-indolic derivatives.

[26] = system: KB (human mouth carcinoma); assay: In vitro cytotoxicity; assay type: cell-based; settings: KB; for inhibition at 10 µM: 10^−5 M, read-out: % of cellular growth inhibition; for inhibition at 1 µM: 10^−6 M, read-out: % of cellular growth inhibition (converted)
Method: as §2

[27] = system: MRC5 (human lung fibroblast); assay: In vitro cytotoxicity; assay type: cell-based; settings: for inhibition at 10 µM: MRC5, 10^−5 M, read-out: % of cellular growth inhibition; for inhibition at 1 µM: MRC5, 10^−6 M, read-out: % of cellular growth inhibition (converted)
Method: as §2

## O=C(C(=O)N1CCOCC1c1c[nH]c2ccccc12)c1c[nH]c2ccccc12 (stereo not shown) [Compound 6b, 1-(3-(1H-Indol-3-yl)morpholino)-2-(1H-indol-3-yl)ethane-1,2-dione]
[1]
  MIC: > 128 µg/mL
[2]
  MIC: > 128 µg/mL
[3]
  MIC: > 128 µg/mL
[4]
  MIC: > 128 µg/mL
[5]
  MIC: > 128 µg/mL
[6]
  MIC: > 128 µg/mL
[7]
  MIC: > 128 µg/mL
[8]
  MIC: > 128 µg/mL
[9]
  MIC: > 128 µg/mL
[10]
  MIC: > 128 µg/mL
[11]
  MIC: > 128 µg/mL
[12]
  MIC: > 128 µg/mL
[13]
  MIC: > 128 µg/mL
[14]
  MIC: > 128 µg/mL
[15]
  MIC: > 128 µg/mL
[16]
  MIC: > 128 µg/mL
[17]
  MIC: > 128 µg/mL
[18]
  MIC: > 128 µg/mL
[19]
  MIC: > 128 µg/mL
[20]
  MIC: > 128 µg/mL
[21]
  MIC: > 128 µg/mL
[22]
  MIC: > 128 µg/mL
[23]
  MIC: > 128 µg/mL
[24]
  MIC: > 128 µg/mL
[25]
  inhibition at 10 µM: 21 ± 10%
  inhibition at 1 µM: 2%
[26]
  inhibition at 10 µM: 9 ± 4%
  inhibition at 1 µM: 0%
[27]
  inhibition at 10 µM: 15 ± 11%
  inhibition at 1 µM: 0%

## CC(C)(C)OC(=O)NCC(NC(=O)C(=O)c1c[nH]c2ccc(Br)cc12)c1c[nH]c2ccc(Br)cc12 (stereo not shown) [Compound 4, tert-Butyl(2-(5-bromo-1H-indol-3-yl)-2-(2-(5-bromo-1H-indol-3-yl)-2-oxoacetamido)ethyl) carbamate]
[1]
  MIC: 0.8 µg/mL (≈ 1.32 µM)
[2]
  MIC: 0.8 µg/mL (≈ 1.32 µM)
[3]
  MIC: 0.8 µg/mL (≈ 1.32 µM)
[4]
  MIC: 0.8 µg/mL (≈ 1.32 µM)
[5]
  MIC: 0.8 µg/mL (≈ 1.32 µM)
[6]
  MIC: 1.6 µg/mL (≈ 2.65 µM)
[7]
  MIC: 1.6 µg/mL (≈ 2.65 µM)
[8]
  MIC: 0.8 µg/mL (≈ 1.32 µM)
[9]
  MIC: 1.6 µg/mL (≈ 2.65 µM)
[10]
  MIC: 0.8 µg/mL (≈ 1.32 µM)
[11]
  MIC: 1.6 µg/mL (≈ 2.65 µM)
[12]
  MIC: 1.6 µg/mL (≈ 2.65 µM)
[15]
  MIC: > 128 µg/mL
[17]
  MIC: > 128 µg/mL
[19]
  MIC: 1.6 µg/mL (≈ 2.65 µM)
[23]
  MIC: > 128 µg/mL
[25]
  inhibition at 10 µM: 58 ± 4%
  inhibition at 1 µM: 0%
[26]
  inhibition at 10 µM: 76 ± 5%
  inhibition at 1 µM: 0%
[27]
  inhibition at 10 µM: 51 ± 9%
  inhibition at 1 µM: 0%

## CC(C)(C)OC(=O)NCC(NC(=O)C(=O)c1c[nH]c2ccccc12)c1c[nH]c2ccccc12 (stereo not shown) [Compound 2, tert-Butyl(2-(2-(1H-indol-3-yl)-2-oxoacetamido)-2-(1H-indol-3-yl)ethyl)carbamate]
[1]
  MIC: > 128 µg/mL
[2]
  MIC: > 128 µg/mL
[3]
  MIC: > 128 µg/mL
[4]
  MIC: > 128 µg/mL
[5]
  MIC: > 128 µg/mL
[6]
  MIC: > 128 µg/mL
[7]
  MIC: > 128 µg/mL
[8]
  MIC: > 128 µg/mL
[9]
  MIC: > 128 µg/mL
[10]
  MIC: > 128 µg/mL
[11]
  MIC: > 128 µg/mL
[12]
  MIC: > 128 µg/mL
[13]
  MIC: > 128 µg/mL
[14]
  MIC: > 128 µg/mL
[15]
  MIC: > 128 µg/mL
[16]
  MIC: > 128 µg/mL
[17]
  MIC: > 128 µg/mL
[18]
  MIC: > 128 µg/mL
[19]
  MIC: > 128 µg/mL
[20]
  MIC: > 128 µg/mL
[21]
  MIC: > 128 µg/mL
[22]
  MIC: > 128 µg/mL
[23]
  MIC: > 128 µg/mL
[24]
  MIC: > 128 µg/mL
[25]
  inhibition at 10 µM: 96 ± 1%
  inhibition at 1 µM: 53%
[26]
  inhibition at 10 µM: 97 ± 1%
  inhibition at 1 µM: 33%
[27]
  inhibition at 10 µM: 100 ± 2%
  inhibition at 1 µM: 10 ± 0.5%
